For 4 cell lines, relative viability results are on record in the supplement of paper PMC10307832.

Experiment in all cases: relative viability (nuclei count vs DMSO), 5 days (fraction); higher = more cells survive
Compound in test [1]: CN1C=C(C2=CC=CC=C21)/C=C\3/C4=C(C=CC=N4)NC3=O + NC(=O)Nc1cc(-c2cccc(F)c2)sc1C(=O)N[C@H]1CCCNC1 [AZD7762] (partner 0.2 µM)
Summed up: (§1)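 Medians of duplicate plates are given as relative viability. That measure is the nuclei count in treated wells divided by the count in vehicle wells. Counts were taken on 4× images of lung cancer cell lines in 1536-well plates, 5 days after pin-tool dosing the day after seeding with one drug alone or a fixed anchor-drug dose plus five library-drug doses (not always all listed) in √10 steps.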

Compound in test [2]: CC(=O)Nc1cccc(-n2c(=O)n(C3CC3)c(=O)c3c(Nc4ccc(I)cc4F)n(C)c(=O)c(C)c32)c1 [Trametinib] + CCNC(=O)c1noc(-c2cc(C(C)C)c(O)cc2O)c1-c1ccc(CN2CCOCC2)cc1 [Luminespib] (partner 0.01 µM)
A digest of the protocol:
as §1

Compound in test [3]: CN1C=C(C2=CC=CC=C21)/C=C\3/C4=C(C=CC=N4)NC3=O + CC(=O)c1c(C)c2cnc(Nc3ccc(N4CCNCC4)cn3)nc2n(C2CCCC2)c1=O [Palbociclib] (partner 0.5 µM)
A digest of the protocol:
as §1

Compound in test [4]: CN1C=C(C2=CC=CC=C21)/C=C\3/C4=C(C=CC=N4)NC3=O + O=C(CCCCCCC(=O)Nc1ccccc1)NO [Vorinostat] (partner 1 µM)
A digest of the protocol:
as §1

With NCI-H650, the relative viability came to 1.05 in test [1] (first compound 0.02 µM); 0.939 in test [1] (first compound 0.06325 µM); 1.2 in test [1] (first compound 0.6325 µM); 0.965 in test [1] (first compound 2 µM); 0.862 in test [2] (first compound 0.0025 µM); 0.828 in test [2] (first compound 0.007906 µM). For the same cell line, the relative viability in test [2] (first compound 0.025 µM) was found to be 0.659; in test [2] (first compound 0.07906 µM) it was 0.578; in test [2] (first compound 0.25 µM) it was 0.375; in test [3] (first compound 0.02 µM), 0.385; in test [3] (first compound 0.06325 µM), 0.341; in test [3] (first compound 0.6325 µM) it was 0.356. Besides, the relative viability in test [3] (first compound 2 µM) was 0.391; in test [4] (first compound 0.02 µM), 0.439; in test [4] (first compound 0.06325 µM) it was 0.369; in test [4] (first compound 0.6325 µM), 0.383; in test [4] (first compound 2 µM), 0.328.

Consider NCI-H1755, for which the relative viability in test [1] (first compound 0.02 µM) is 0.443; in test [1] (first compound 0.06325 µM), 0.408; in test [1] (first compound 0.2 µM), 0.354; in test [1] (first compound 0.6325 µM), 0.448; in test [1] (first compound 2 µM) it was 0.409; in test [2] (first compound 0.0025 µM), 0.412. Moreover, the relative viability in test [2] (first compound 0.007906 µM) came to 0.333; in test [2] (first compound 0.025 µM), 0.598; in test [2] (first compound 0.07906 µM), 0.462; in test [2] (first compound 0.25 µM), 0.301; in test [3] (first compound 0.02 µM) it was 0.434; in test [3] (first compound 0.06325 µM) it was 0.463. For the same cell line, the relative viability in test [3] (first compound 0.2 µM) is 0.431; in test [3] (first compound 0.6325 µM) it was 0.433; in test [3] (first compound 2 µM), 0.427; in test [4] (first compound 0.02 µM), 0.601; in test [4] (first compound 0.06325 µM) it was 0.751; in test [4] (first compound 0.2 µM), 0.477. The relative viability was 0.584 in test [4] (first compound 0.6325 µM) and 0.643 in test [4] (first compound 2 µM).

Turning to NCI-H2085, the relative viability in test [1] (first compound 0.02 µM) was 0.97; in test [1] (first compound 0.06325 µM), 1.03; in test [1] (first compound 0.2 µM), 0.968; in test [1] (first compound 0.6325 µM), 0.956; in test [1] (first compound 2 µM) it was 0.947; in test [2] (first compound 0.0025 µM) it was 0.415. The relative viability in test [2] (first compound 0.007906 µM) is 0.325; in test [2] (first compound 0.025 µM), 0.263; in test [2] (first compound 0.07906 µM), 0.288; in test [2] (first compound 0.25 µM), 0.329; in test [3] (first compound 0.02 µM), 0.452; in test [3] (first compound 0.06325 µM), 0.473. The relative viability is 0.508 in test [3] (first compound 0.2 µM); 0.471 in test [3] (first compound 0.6325 µM); 0.461 in test [3] (first compound 2 µM); 0.723 in test [4] (first compound 0.02 µM); 0.757 in test [4] (first compound 0.06325 µM); 0.746 in test [4] (first compound 0.2 µM). The relative viability was found to be 0.735 in test [4] (first compound 0.6325 µM) and 0.784 in test [4] (first compound 2 µM).

In the case of HOP-62, the relative viability stood at 0.569 in test [1] (first compound 0.02 µM); 0.559 in test [1] (first compound 0.06325 µM); 0.919 in test [1] (first compound 0.6325 µM); 0.774 in test [1] (first compound 2 µM); 0.933 in test [2] (first compound 0.0025 µM); 0.754 in test [2] (first compound 0.007906 µM). In addition, the relative viability was 0.533 in test [2] (first compound 0.025 µM); 0.361 in test [2] (first compound 0.07906 µM); 0.173 in test [2] (first compound 0.25 µM); 0.438 in test [3] (first compound 0.02 µM); 0.415 in test [3] (first compound 0.06325 µM); 0.449 in test [3] (first compound 0.6325 µM). Moreover, the relative viability in test [3] (first compound 2 µM) came to 0.483; in test [4] (first compound 0.02 µM), 0.565; in test [4] (first compound 0.06325 µM), 0.543; in test [4] (first compound 0.6325 µM), 0.576; in test [4] (first compound 2 µM), 0.547.
